The values below come from ChEMBL document CHEMBL1127766, “Stereochemical approach for enzyme inhibitor design” (Bioorg Med Chem Lett, 1994).

Structures are written as SMILES. Several values for one entry are separate records, joined by “and”; a condition that tells them apart may be missing. Equal entries are not always repeated.

One test addresses Chymotrypsinogen A (Bos taurus, UniProt P00766). Description: Binding affinity against alpha-chymotrypsin.
Test [1] deals with Chymotrypsinogen A (Bos taurus) (UniProt P00766).

As a reminder, the Ki is the equilibrium dissociation constant of an inhibitor or competing ligand from its target. Consider `COC(=O)[C@@H](Cc1ccccc1)[C@H]1CO1`, for which the Ki at Chymotrypsinogen A is 9.95 mM and 3.23 mM. In test [1], this compound displayed a Kiact of 5.24 min⁻¹.
